The values that follow come from patent US11633459B2, “GIP derivatives and uses thereof” (priority 2018, dated 2023).

Each structure is given as a SMILES string.

What is called half-life is how long it takes for the measured level to halve.

The data set is described as follows: Pharmacokinetic study in minipigs, terminal half-life after i.v. administration. The following applies: female, Göttingen, minipig, plasma, iv, 5 nmol/kg.

Protocol: Pharmacokinetic Study in Minipigs
The purpose of this study is to determine the half-life in vivo of the derivatives of the present invention after i.v. administration to minipigs, i.e. the prolongation of their time in the body and thereby their time of action. This is done in a pharmacokinetic (PK) study, where the terminal half-life of the derivative in question is determined. By terminal half-life is generally meant the period of time it takes to halve a certain plasma concentration, measured after the initial distribution phase.
Female Göttingen minipigs were obtained from Ellegaard Göttingen Minipigs (Dalmose, Denmark) approximately 7-14 months of age and weighing from approximately 16-35 kg were used in the studies. The minipigs were housed individually and fed restrictedly once daily with SDS minipig diet (Special Diets Services, Essex, UK).
After at 3 weeks of acclimatisation two permanent central venous catheters were implanted in vena cava caudalis in each animal. The animals were allowed 1 week recovery after the surgery, and were then used for repeated pharmacokinetic studies with a suitable wash-out period between successive derivative dosing.
Blood samples (for example 0.8 ml) were collected in EDTA buffer (8 mM) and then centrifuged at 4° C. and 1942G for 10 minutes.
Individual plasma concentration-time profiles were analysed by a non-compartmental model in Phoenix WinNonLin ver. […] (Pharsight Inc., Mountain View, Calif., USA), and the resulting terminal half-lives (harmonic mean) determined.

In turn, `CCCC[C@H](NC(=O)[C@H](C)NC(=O)[C@@H](NC(=O)[C@H](CO)NC(=O)[C@H](Cc1ccc(O)cc1)NC(=O)[C@H](CC(=O)O)NC(=O)[C@H](CO)NC(=O)[C@@H](NC(=O)[C@H](Cc1ccccc1)NC(=O)[C@@H](NC(=O)CNC(=O)[C@H](CCC(=O)O)NC(=O)C(C)(C)NC(=O)[C@@H](N)Cc1ccc(O)cc1)[C@@H](C)O)[C@@H](C)CC)[C@@H](C)CC)C(=O)N[C@@H](CC(=O)O)C(=O)N[C@@H](CCCCN)C(=O)N[C@H](C(=O)N[C@@H](CCCNC(=N)N)C(=O)N[C@@H](CCC(N)=O)C(=O)N[C@@H](CCC(N)=O)C(=O)N[C@@H](CC(=O)O)C(=O)N[C@@H](Cc1ccccc1)C(=O)N[C@H](C(=O)N[C@@H](CCCCNC(=O)CC[C@H](NC(=O)CC[C@H](NC(=O)CC[C@H](NC(=O)C1CCC(CNC(=O)CCCCCCCCCCCCCCCCCCC(=O)O)CC1)C(=O)O)C(=O)O)C(=O)O)C(=O)N[C@@H](Cc1c[nH]c2ccccc12)C(=O)N[C@@H](CC(C)C)C(=O)N[C@@H](CC(C)C)C(=O)N[C@@H](C)C(=O)N[C@@H](CCC(N)=O)C(=O)N[C@@H](CCCCN)C(=O)N1CCC[C@H]1C(N)=O)C(C)C)[C@@H](C)CC` (stereo partly drawn) [Compound 26, N{Epsilon-24}-[(4S)-4-carboxy-4-[[(4S)-4-carboxy-4-[[(4S)-4-carboxy-4-[[4-[(19-carboxynonadecanoylamino)methyl]cyclohexanecarbonyl]amino]butanoyl]amino]-butanoyl]amino]butanoyl]-[Aib2,Nle14,Arg18,Lys24,Pro31]-hGIP(1-31) amide] had a half-life of 4.54 days.

Molecule `CCCC[C@H](NC(=O)[C@H](C)NC(=O)[C@@H](NC(=O)[C@H](CO)NC(=O)[C@H](Cc1ccc(O)cc1)NC(=O)[C@H](CC(=O)O)NC(=O)[C@H](CO)NC(=O)[C@@H](NC(=O)[C@H](Cc1ccccc1)NC(=O)[C@@H](NC(=O)CNC(=O)[C@H](CCC(=O)O)NC(=O)[C@H](C)NC(=O)[C@@H](Cc1ccc(O)cc1)NC(C)=O)[C@@H](C)O)[C@@H](C)CC)[C@@H](C)CC)C(=O)N[C@@H](CC(=O)O)C(=O)N[C@@H](CCCCN)C(=O)N[C@H](C(=O)N[C@@H](CCCNC(=N)N)C(=O)N[C@@H](CCC(N)=O)C(=O)N[C@@H](CCC(N)=O)C(=O)N[C@@H](CC(=O)O)C(=O)N[C@@H](Cc1ccccc1)C(=O)N[C@H](C(=O)N[C@@H](CCCCNC(=O)CC[C@H](NC(=O)CC[C@H](NC(=O)CC[C@H](NC(=O)C1CCC(CNC(=O)CCCCCCCCCCCCCCCCCCC(=O)O)CC1)C(=O)O)C(=O)O)C(=O)O)C(=O)N[C@@H](Cc1c[nH]c2ccccc12)C(=O)N[C@@H](CC(C)C)C(=O)N[C@@H](CC(C)C)C(=O)N[C@@H](C)C(=O)N[C@@H](CCC(N)=O)C(=O)N[C@@H](CCCCN)C(=O)NCC(=O)O)C(C)C)[C@@H](C)CC` (stereo partly drawn) [Compound 8, N{1}-acetyl,N{Epsilon-24}-[(4S)-4-carboxy-4-[[(4S)-4-carboxy-4-[[(4S)-4-carboxy-4-[[4-[(19-carboxynonadecanoylamino)methyl]cyclohexanecarbonyl]amino]-butanoyl]amino]butanoyl]amino]butanoyl]-[D-Tyr1,Nle14,Arg18,Lys24]-hGIP(1-31)] gave a half-life of 4.42 days.
